The values that follow come from PMC8235214, “Purification, Identification, Activity Evaluation, and Stability of Antioxidant Peptides from Alcalase Hydrolysate of Antarctic Krill (Euphausia superba) Proteins” (Marine Drugs, 2021).

Like-named read-outs stand apart in the source and are kept apart here. Ends that are not written are not given here. Peptide text beside a SMILES is read from it.

Data set [1] in a line: Simulated GI digestion stability (pepsin then pancreatin, DPPH· scavenging read-out). In kind it is in vitro ADME. The note with it: peptide 1.0 mg/mL; two-stage model, pepsin 120 min then pancreatin 60 min (0 to 180 min); mean ± SD, n = 3. As for the experimental part: The influence of simulate GI digestion on the stability of ESP6, ESP7, and ESP8 was evaluated by the two-stage digestion model. In short, ESP6, ESP7, and ESP8 were separately treated with pepsin for 120 min and pancreatin for 60 min.
The DPPH· scavenging ratio (%) of ESP6, ESP7, and ESP8 at 1.0 mg/mL were measured at the set time to analyze their stability.

The conditions of data set [2]: cited from earlier work; for Stability under thermal and pH treatments (HO· scavenging activity): high temperature (>60 °C) and strong acid and alkali conditions; for Stability under thermal and pH treatments: 25–100 °C or pH 3–11 treatments. An excerpt: The pH and thermal stability of antioxidant peptides are key properties for their applications in food and health products, and tolerance property on simulated GI digestion treatments can help to assess the rate of metabolism and timeliness of antioxidant peptides in vivo [25, 52, 68, 69].

Details of data set [3]: method as in 6 sources, ref 36 = [36]; PMID 23411302; doi:10.1016/j.foodchem.2012.12.002; 36. Wang B. Li L. Chi C.F. Ma J.H. Luo H.Y. Xu Y.F. Purification and Characterization of a novel antioxidant peptide derived from blue mussel ( Mytilus edulis ) protein hydrolysate Food Chem. 2013 138 ||| ref 45 = [45]; doi:10.1016/j.foodres.2010.02.009; 45. You L. Zhao M. Regenstein J.M. Ren J. Purification and identification of antioxidative peptides from loach ( Misgurnus anguillicaudatus ) protein hydrolysate by consecutive chromatography and elec ||| ref 46 = [46]; PMID 22652579; doi:10.1016/j.peptides.2012.05.013; 46. Wang B. Li Z.R. Chi C.F. Zhang Q.H. Luo H.Y. Preparation and evaluation of antioxidant peptides from ethanol-soluble proteins hydrolysate of Sphyrna lewini muscle Peptides 2012 36 240 250 10.1016/ ||| ref 49 = [49]; PMID 31058809; doi:10.3390/md17050263; 49. Pan X.Y. Wang Y.M. Li L. Chi C.F. Wang B. Four antioxidant peptides from protein hydrolysate of red stingray ( Dasyatis akajei ) cartilages: Isolation, identification, and in vitro activity evalua ||| ref 22 = [22]; PMID 32164197; doi:10.3390/md18030153; 22. Hu X.M. Wang Y.M. Zhao Y.Q. Chi C.F. Wang B. Antioxidant peptides from the protein hydrolysate of monkfish ( Lophius litulon ) muscle: Purification, identification, and cytoprotective function on ||| ... The note with it: cited from earlier work.

The conditions of data set [4]: cited from earlier work. An excerpt: In the organism, HO· can oxidize and damage most of the macromolecules due to its high reactivity characteristic. Therefore, looking for natural antioxidant peptides with high HO· scavenging ability is key for discovering new antioxidants. […] In addition, EC50 values of ESP6, ESP7, and ESP8 were also lower ...
For data set [5] the following is noted: cited from earlier work. An excerpt:
However, no significant difference was found among the EC50 values of ESP6, ESP7, and ESP8 (p > 0.05).
This is another data set of the same source.

The mark [6] stands for this setting: peptides from giant squid protein.
The mark [7] stands for this setting: peptides from Raja porosa cartilage.
The mark [8] stands for this setting: peptides from miiuy croaker swim bladders.
Setting [9] is: peptides from Mytilus edulis and scales of croceine croaker.
Setting [10] is: peptides from skipjack tuna heads.
Setting [11] is: peptides from swim bladders of miiuy croaker.
Where [12] appears, read: peptides from red stingray cartilages.
Where [13] appears, read: peptides from Sphyrna lewini muscle.

As for `CC(C)C[C@H](NC(=O)[C@@H](N)CO)C(=O)N1CCC[C@H]1C(=O)N[C@@H](Cc1ccc(O)cc1)C(=O)O` [ESP6, Ser-Leu-Pro-Tyr] (H-SLPY-OH), the “Decrease of DPPH· scavenging ratio by simulated GI digestion” value in data set [1] is 6.41 ± 0.96%.

Take `CSCC[C@H](NC(=O)[C@@H]1CCCN1C(=O)[C@@H]1CCCN1C(=O)[C@H](Cc1ccc(O)cc1)NC(=O)[C@@H](N)CCC(N)=O)C(=O)N[C@@H](CCC(N)=O)C(=O)N[C@@H](Cc1ccc(O)cc1)C(=O)O` [ESP7, Gln-Tyr-Pro-Pro-Met-Gln-Tyr] (H-QYPPMQY-OH): the “Decrease of DPPH· scavenging ratio by simulated GI digestion” value in data set [1] is on record as 8.36 ± 0.59%. Still for that read-out and setting: with `C[C@H](NC(=O)[C@H](CCC(=O)O)NC(=O)[C@H](Cc1ccc(O)cc1)NC(=O)[C@@H](N)CCC(=O)O)C(=O)O` [ESP8, Glu-Tyr-Glu-Ala] (H-EYEA-OH) the figure was 6.48 ± 1.03%. As to ATSHH, in data set [2] (50–90 °C and strong acids and bases), the “Stability under thermal and pH treatments (DPPH· scavenging activity)” value is reported as “will decrease its partial DPPH· scavenging activity”. Regarding “EDIVCW [EDIVCW, antioxidant peptide from monkfish muscle]”, the “EC50 on DPPH·” value in data set [3] (peptides from monkfish muscle) is 390 µg/mL. With “FDSGPAGVL [FDSGPAGVL, antioxidant peptide from giant squid protein]”, the “EC50 on HO·” value in data set [4] (setting [6]) is 78 µg/mL.

As for “FIMGPY [FIMGPY, antioxidant peptide from Raja porosa cartilage]”, the “EC50 on O2−·” value in data set [5] (setting [7]) is 1610 µg/mL.

On to “FPYLRH [FPYLRH, antioxidant peptide from miiuy croaker swim bladders]”, for which, in data set [3] (setting [8]), the “EC50 on DPPH·” value was 510 ± 30 µg/mL. The “EC50 on HO·” value in data set [4] (setting [8]) was 680 ± 50 µg/mL. As to “GPAGDY [GPAGDY, antioxidant peptide from Raja porosa cartilage]”, in data set [5] (setting [7]), the “EC50 on O2−·” value is 1660 µg/mL. Turning to “GPAGPAG [GPAGPAG, antioxidant peptide from scales of croceine croaker]”, in data set [3] (setting [9]), the “EC50 on DPPH·” value was 675 µg/mL. In the case of “Glu-Met-Gly-Pro-Ala [EMGPA, antioxidant peptide from skipjack tuna heads]”, the “Stability under thermal and pH treatments (HO· scavenging activity)” value (from here on “Stability … (HO· scavenging activity)”) in data set [2] was “significantly influenced”. In data set [5] (setting [10]), the “EC50 on O2−·” value is 710 µg/mL.

Regarding “Gly-Ile-Glu-Trp-Ala [GIEWA, antioxidant peptide from miiuy croaker swim bladders]”, the “EC50 on DPPH·” value in data set [3] (setting [8]) was 780 ± 50 µg/mL.

As to “Gly-Phe-Pro-Ser-Gly [GFPSG, antioxidant peptide from scales of croceine croaker]”, the “EC50 on DPPH·” value in data set [3] (setting [9]) was 283 µg/mL. For “Gly-Phe-Tyr-Ala-Ala [GFYAA, antioxidant peptide from miiuy croaker swim bladders]”, the “EC50 on O2−·” value in data set [5] (setting [11]) is 3030 ± 190 µg/mL. In addition, the “EC50 on HO·” value in data set [4] (setting [8]) was 2350 ± 220 µg/mL. Take “IVAGPQ [IVAGPQ, antioxidant peptide from skate (Raja porosa) cartilages]”: the “EC50 on O2−·” value in data set [5] (setting [7]) was 1820 µg/mL. Further, in data set [4] (peptide from skate cartilages), the “EC50 on HO·” value was 5030 µg/mL. Consider “Ile-Glu-Glu-Glu-Gln [IEEEQ, antioxidant peptide from red stingray cartilages]”, for which the “EC50 on DPPH·” value in data set [3] (setting [12]) is 4010 µg/mL. Consider “Leu-Glu-Glu-Glu-Glu [LEEEE, antioxidant peptide from red stingray cartilages]”, for which the “EC50 on DPPH·” value in data set [3] (setting [12]) was 3690 µg/mL. Turning to MYPGLA, the “Stability under thermal and pH treatments” value in data set [2] was “high stability”.

In the case of “Met-Glu-Pro-Val-Trp [MEPVW, antioxidant peptide from monkfish muscle]”, the “EC50 on O2−·” value in data set [5] (peptide from monkfish muscle) was 940 µg/mL. Also, in data set [3] (peptides from monkfish muscle), the “EC50 on DPPH·” value is 620 µg/mL. Turning to “Met-Ile-Leu-Met-Arg [MILMR, antioxidant peptide from croceine croaker muscle]”, in data set [5] (peptide from croceine croaker muscle), the “EC50 on O2−·” value is 993 µg/mL. For the molecule “NGPLQAGQPGER [NGPLQAGQPGER, antioxidant peptide from giant squid protein]”, in data set [4] (setting [6]), the “EC50 on HO·” value is 123 µg/mL. Consider “Phe-Ser-Gly-Leu-Arg [FSGLR, antioxidant peptide from miiuy croaker swim bladders]”, for which the “EC50 on O2−·” value in data set [5] (setting [11]) was 3350 ± 200 µg/mL. Also, in data set [4] (setting [8]), the “EC50 on HO·” value is 2450 ± 250 µg/mL. For the molecule “Phe-Thr-Gly-Met-Asp [FTGMD, antioxidant peptide from miiuy croaker swim bladders]”, the “EC50 on O2−·” value in data set [5] (setting [11]) was 3040 ± 270 µg/mL. For the same molecule, the “EC50 on HO·” value in data set [4] (setting [8]) is 2310 ± 120 µg/mL. Take “Pro-Ser-Tyr-Val [PSYV, antioxidant peptide from weatherfish loach]”: the “EC50 on DPPH·” value in data set [3] (peptide from weather loach) was 17000 µg/mL. Also, in data set [4] (peptide from weatherfish loach), the “EC50 on HO·” value was 2640 µg/mL.

Consider “Pro-Tyr-Phe-Asn-Lys [PYFNK, antioxidant peptide from Sphyrna lewini muscle]”, for which the “EC50 on O2−·” value in data set [5] (setting [13]) was 110 µg/mL. In addition, the “EC50 on DPPH·” value in data set [3] (setting [13]) was 4110 µg/mL. Also, the “EC50 on HO·” value in data set [4] (setting [13]) was 240 µg/mL.

Turning to “Trp-Asp-Arg [WDR, antioxidant peptide from Sphyrna lewini muscle]”, the “EC50 on O2−·” value in data set [5] (setting [13]) is 90 µg/mL. Also, in data set [3] (setting [13]), the “EC50 on DPPH·” value is 3630 µg/mL. In addition, the “EC50 on HO·” value in data set [4] (setting [13]) was 150 µg/mL. For “Trp-Glu-Gly-Pro-Lys [WEGPK, antioxidant peptide from heads of bluefin leatherjacket]”, the “EC50 on HO·” value in data set [4] (peptide from heads of bluefin leatherjacket) was 5567 µg/mL. Consider “Trp-Met-Gly-Pro-Tyr [WMGPY, antioxidant peptide from skipjack tuna heads]”, for which the “Stability … (HO· scavenging activity)” value in data set [2] is listed as “significantly influenced”. In data set [5] (setting [10]), the “EC50 on O2−·” value is 380 µg/mL. For the molecule “Trp-Met-Phe-Asp-Trp [WMFDW, antioxidant peptide from skipjack tuna heads]”, the “Stability … (HO· scavenging activity)” value in data set [2] is “significantly influenced”. Also, in data set [5] (setting [10]), the “EC50 on O2−·” value is 560 µg/mL.

Turning to “Tyr-Leu-Pro-Tyr-Ala [YLPYA, antioxidant peptide from swim bladders of miiuy croaker]”, the “EC50 on O2−·” value in data set [5] (setting [11]) was 3610 ± 250 µg/mL. For “Tyr-Phe-Leu-Trp-Pro [YFLWP, antioxidant peptide from miiuy croaker muscle]”, the “EC50 on O2−·” value in data set [5] (peptide from miiuy croaker muscle) was 3080 µg/mL. For “Tyr-Pro-Pro-Ala-Lys [YPPAK, antioxidant peptide from blue mussel (Mytilus edulis)]”, the “EC50 on O2−·” value in data set [5] (peptide from blue mussel) is 72 µg/mL. In addition, in data set [3] (setting [9]), the “EC50 on DPPH·” value is 2620 µg/mL. Moreover, in data set [4] (peptide from blue mussel), the “EC50 on HO·” value was 228 µg/mL. For “Tyr-Trp-Asp-Ala-Trp [YWDAW, antioxidant peptide from monkfish muscle]”, the “EC50 on DPPH·” value in data set [3] (peptides from monkfish muscle) was 510 µg/mL. Take “VPDDD [antioxidant peptide from swim bladders of miiuy croaker]”: in data set [5] (setting [11]), the “EC50 on O2−·” value was 4110 ± 310 µg/mL. As for Val-Pro-Arg [VPR], in data set [3] (setting [12]), the “EC50 on DPPH·” value is 4610 µg/mL.

“Val-Pro-Asp-Asp [VPDD, antioxidant peptide from miiuy croaker swim bladders]”: in data set [4] (setting [8]), the “EC50 on HO·” value was 2850 ± 190 µg/mL. WAFAPA: the “Stability under thermal and pH treatments” value in data set [2] is “high stability”.
